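Protocol summary: plate cells (96-well), add compound at 5 concentrations, incubate 48 h, interpolate endpoints linearly. At the GI50, growth is halved. TGI is the concentration that stops growth completely.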
Assays:
Test in all cases: growth of human tumour cells (NCI), 48 h
LOX IMVI melanoma = test system: LOX IMVI melanoma
UACC-62 melanoma = test system: UACC-62 melanoma
SF-268 CNS = test system: SF-268 CNS
ACHN renal = test system: ACHN renal
SK-OV-3 ovarian = test system: SK-OV-3 ovarian
SNB-19 CNS = test system: SNB-19 CNS
A498 renal = test system: A498 renal
UO-31 renal = test system: UO-31 renal
SK-MEL-28 melanoma = test system: SK-MEL-28 melanoma
HOP-62 NSCLC = test system: HOP-62 NSCLC
KM20L2 colon = test system: KM20L2 colon
A549 NSCLC = test system: A549 NSCLC
KM12 colon = test system: KM12 colon
HL-60(TB) leukemia = test system: HL-60(TB) leukemia
SK-MEL-5 melanoma = test system: SK-MEL-5 melanoma
COLO 205 colon = test system: COLO 205 colon
TK-10 renal = test system: TK-10 renal
UACC-257 melanoma = test system: UACC-257 melanoma
IGROV1 ovarian = test system: IGROV1 ovarian
SN12C renal = test system: SN12C renal
OVCAR-8 ovarian = test system: OVCAR-8 ovarian
MALME-3M melanoma = test system: MALME-3M melanoma
SNB-75 CNS = test system: SNB-75 CNS
CCRF-CEM leukemia = test system: CCRF-CEM leukemia
EKVX NSCLC = test system: EKVX NSCLC
DMS 273 small cell lung = test system: DMS 273 small cell lung
DLD-1 colon = test system: DLD-1 colon
OVCAR-3 ovarian = test system: OVCAR-3 ovarian
U251 CNS = test system: U251 CNS
NCI-H460 lung = test system: NCI-H460 lung
HT29 colon = test system: HT29 colon
NCI-H522 lung = test system: NCI-H522 lung
HOP-92 NSCLC = test system: HOP-92 NSCLC
OVCAR-5 ovarian = test system: OVCAR-5 ovarian
HCT-116 colon = test system: HCT-116 colon
SK-MEL-2 melanoma = test system: SK-MEL-2 melanoma
K-562 leukemia = test system: K-562 leukemia
MOLT-4 leukemia = test system: MOLT-4 leukemia
NCI-H23 lung = test system: NCI-H23 lung
M14 melanoma = test system: M14 melanoma
RPMI-8226 leukemia = test system: RPMI-8226 leukemia
HCT-15 colon = test system: HCT-15 colon
HCC-2998 colon = test system: HCC-2998 colon
786-0 renal = test system: 786-0 renal
LXFL 529 NSCLC = test system: LXFL 529 NSCLC
OVCAR-4 ovarian = test system: OVCAR-4 ovarian
SNB-78 CNS = test system: SNB-78 CNS
SF-539 CNS = test system: SF-539 CNS
SF-295 CNS = test system: SF-295 CNS
SW-620 colon = test system: SW-620 colon

## CCCCCCCC(=O)[O-].N.N.N.N.N.[Co+3].[O-][Cl+3]([O-])([O-])[O-]
LOX IMVI melanoma
  GI50: > 100 µM
  TGI: > 100 µM
UACC-62 melanoma
  GI50: > 100 µM
  TGI: > 100 µM
SF-268 CNS
  GI50: > 100 µM
  TGI: > 100 µM
ACHN renal
  GI50: > 100 µM
  TGI: > 100 µM
SK-OV-3 ovarian
  GI50: > 100 µM
  TGI: > 100 µM
SNB-19 CNS
  GI50: > 100 µM
  TGI: > 100 µM
A498 renal
  GI50: > 100 µM
  TGI: > 100 µM
UO-31 renal
  GI50: 90.6 µM
  TGI: > 100 µM
SK-MEL-28 melanoma
  GI50: > 100 µM
  TGI: > 100 µM
HOP-62 NSCLC
  GI50: > 100 µM
  TGI: > 100 µM
KM20L2 colon
  GI50: > 100 µM
  TGI: > 100 µM
A549 NSCLC
  GI50: > 100 µM
  TGI: > 100 µM
KM12 colon
  GI50: > 100 µM
  TGI: > 100 µM
HL-60(TB) leukemia
  GI50: > 100 µM
  TGI: > 100 µM
SK-MEL-5 melanoma
  GI50: > 100 µM
  TGI: > 100 µM
COLO 205 colon
  GI50: > 100 µM
  TGI: > 100 µM
TK-10 renal
  GI50: > 100 µM
  TGI: > 100 µM
UACC-257 melanoma
  GI50: > 100 µM
  TGI: > 100 µM
IGROV1 ovarian
  GI50: > 100 µM
  TGI: > 100 µM
SN12C renal
  GI50: > 100 µM
  TGI: > 100 µM
OVCAR-8 ovarian
  GI50: > 100 µM
  TGI: > 100 µM
MALME-3M melanoma
  GI50: > 100 µM
  TGI: > 100 µM
SNB-75 CNS
  GI50: > 100 µM
  TGI: > 100 µM
CCRF-CEM leukemia
  GI50: > 100 µM
  TGI: > 100 µM
EKVX NSCLC
  GI50: > 100 µM
  TGI: > 100 µM
DMS 273 small cell lung
  GI50: > 100 µM
  TGI: > 100 µM
DLD-1 colon
  GI50: > 100 µM
  TGI: > 100 µM
OVCAR-3 ovarian
  GI50: > 100 µM
  TGI: > 100 µM
U251 CNS
  GI50: > 100 µM
  TGI: > 100 µM
NCI-H460 lung
  GI50: > 100 µM
  TGI: > 100 µM
HT29 colon
  GI50: > 100 µM
  TGI: > 100 µM
NCI-H522 lung
  GI50: > 100 µM
  TGI: > 100 µM
HOP-92 NSCLC
  GI50: > 100 µM
  TGI: > 100 µM
OVCAR-5 ovarian
  GI50: > 100 µM
  TGI: > 100 µM
HCT-116 colon
  GI50: > 100 µM
  TGI: > 100 µM
SK-MEL-2 melanoma
  GI50: > 100 µM
  TGI: > 100 µM
K-562 leukemia
  GI50: > 100 µM
  TGI: > 100 µM
MOLT-4 leukemia
  GI50: 53.5 µM
  TGI: > 100 µM
NCI-H23 lung
  GI50: > 100 µM
  TGI: > 100 µM
M14 melanoma
  GI50: > 100 µM
  TGI: > 100 µM
RPMI-8226 leukemia
  GI50: > 100 µM
  TGI: > 100 µM
HCT-15 colon
  GI50: > 100 µM
  TGI: > 100 µM
HCC-2998 colon
  GI50: > 100 µM
  TGI: > 100 µM
786-0 renal
  GI50: > 100 µM
  TGI: > 100 µM
LXFL 529 NSCLC
  GI50: > 100 µM
  TGI: > 100 µM
OVCAR-4 ovarian
  GI50: > 100 µM
  TGI: > 100 µM
SNB-78 CNS
  GI50: > 100 µM
  TGI: > 100 µM
SF-539 CNS
  GI50: > 100 µM
  TGI: > 100 µM
SF-295 CNS
  GI50: > 100 µM
  TGI: > 100 µM
SW-620 colon
  GI50: > 100 µM
  TGI: > 100 µM

Reference: PubChem BioAssay (NCI)
